The source made the active and inactive calls.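 The calls were made as follows: active = compounds giving half or more protection of infected cells from virus-caused growth loss, again on retest; inactive = the rest.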 Where a SMILES comes first, the peptide text is derived from it. The star is where a group is joined. Cbz = O=C(OCc1ccccc1)*
System: CEM cells HIV-1 protection, formazan growth assay
Assay: NCI AIDS Antiviral Assay
Settings: for IC50: measured here: growth of uninfected CEM cells
How it was run: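 Steps: treat uninfected and HIV-1-infected human CEM cells at five drug levels; quantify growth by soluble formazan; retest any compound reaching 50% protection; classify actives from the retest.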

Row | SMILES | EC50 | IC50 | outcome
1 | CSc1nnc2c(=O)n(C)c(=O)n(C)c2n1 | > 200 µM | 43.7 µM | 
2 | Cc1cc(C23OC4COC(C)(C)OC4C2OC(C)(C)O3)ncn1 (stereo not drawn) | > 200 µM | > 200 µM | 
3 | O=C(Nc1ccc(Cl)c(Cl)c1)N1c2ccccc2Sc2ccccc21 |  |  | inactive
4 | COc1ccc(NC(=O)C(=O)Cc2nc3ccc([N+](=O)[O-])cc3[nH]c2=O)c(OC)c1 | > 17.4 µM | > 17.4 µM | 
5 | O=C1CSC(c2c[nH]c3ccccc23)N1c1ccc(Cl)cc1 (stereo not drawn) | > 110 µM | > 110 µM | 
6 | Cc1ccc(S(=O)(=O)n2c3c(c4ccccc42)CCN2CCC(Br)C[C@@H]32)cc1 (stereo partly drawn) | > 200 µM | 20.9 µM | 
7 | C=CCC1(O)C(CO[Si](C)(C)C(C)(C)C)OC(n2ccc(=O)[nH]c2=O)C1O[Si](C)(C)C(C)(C)C (stereo not drawn) | > 200 µM | 10.2 µM | 
8 | Cc1nn(C(=O)c2ccccc2O)c2c1C(c1ccc(O)cc1O)SC(N)=N2 (stereo not drawn) | > 2 µM | 0.331 µM | 
9 | COc1ccccc1N1C(=O)/C(=C/c2ccc(N(CCC#N)CCC#N)cc2C)N=C1c1cc([N+](=O)[O-])ccc1Cl |  |  | inactive
10 | C/C=C(/CCCCOC1CCCCO1)[Si](C)(C)C (stereo not drawn) |  |  | inactive
11 | CCOC(=O)/C(=C\c1ccc(OC)cc1)P(=O)(OCC)OCC | > 380 µM | 77.6 µM | 
12 | O=C(OC[C@H]1C[C@H]2C(=O)CCC[C@H]2O1)c1ccccc1 | > 200 µM | > 200 µM | 
13 | CS(=O)(=O)N1CC(CCl)c2ccc(SSc3ccc4c(c3)N(S(C)(=O)=O)CC4CCl)cc21 (stereo not drawn) |  |  | inactive
14 | COC(=O)C(N)CSSCC(N)C(=O)OC (stereo not drawn) | > 324 µM | 123 µM | 
15 | CN=C(NC)N(C)c1nc(=[N+](C)C)ss1 |  |  | inactive
16 | CC(C)C(NC(=O)C1CCCN1C(=O)OCc1ccccc1)C(=O)O (stereo not drawn) (Cbz-Pro-Val-OH; configuration not given here) | > 724 µM | > 724 µM | 
17 | CC(C)(CC#N)c1cc(CC(C)(C)c2cc(CC(C)(C)c3cc(C(C)(C)C4(C)OCCO4)no3)no2)no1 | > 200 µM | 60.3 µM | 
18 | COc1cc2c(cc1OC)C13CCN4CC5=CCOC6CC(=O)N2C1C6C5C4C3 (stereo not drawn) (tested in a mixture with another compound) | > 209 µM |  | 
19 | O=S1(=O)c2ccccc2C(Nc2ccccc2)N1c1ccccc1 (stereo not drawn) | > 200 µM | 66.1 µM | 
20 | COc1cc2nc(CC(O)c3nc4cc(OC)c(OC)cc4[nH]3)[nH]c2cc1OC (stereo not drawn) | > 200 µM | 17.4 µM | 
21 | CC(C)=CCC[C@@H](C)/C=C/C=C(\C)C(=O)CC[C@@H]1CC[N@+]2(C)CCCC[C@H]12 | > 200 µM | 46.8 µM | 
22 | Cc1cc(N=O)cc(C)c1O | > 200 µM | 5.13 µM | 

Row | SMILES | EC50 | IC50 | outcome
23 | CC(=O)OC1CCCn2c1nc1c2C(=O)C(C)=C(N2CC2)C1=O (stereo not drawn) |  |  | inactive
24 | COc1ccccc1NC(=O)C1=C(C)NC(C)=C(C(=O)Nc2ccccc2OC)C1c1ccccc1F |  |  | inactive
25 | CCOC(=O)C1C(=O)[C@H](C(=O)OC)C2CCCC3CCCC1N32 (stereo partly drawn) | > 200 µM | > 200 µM | 
26 | CC1CNc2cccc3[nH]c(=S)n(c23)C1 (stereo not drawn) | > 200 µM | > 200 µM | 
27 | CCc1cc2c(c3c1CCCC3=O)CC1(C2)Cc2cc(CC)c3c(c2C1)C(=O)CCC3 | > 200 µM | 138 µM | 
28 | COc1c(Cl)cc(S(=O)O)cc1Cl |  |  | inactive
29 | CC(O)CN(N)CC(C)O (stereo not drawn) |  |  | inactive
30 | COC(=O)C[C@@H]1C(C)(C)[C@@H]2O[C@@]34C[C@@H]2C(=O)[C@]1(C)[C@H]3CC[C@@]1(C)[C@H](c2ccoc2)OC(=O)C[C@]14O | > 200 µM | 120 µM | 
31 | COc1cccc2c1OC(c1cccc3ccccc13)C([N+](=O)[O-])=C2 (stereo not drawn) | > 2 µM | 1.07 µM | 
32 | O=C(O)CCc1ccc2c(c1)CC1(Cc3ccccc3C1)C2 | > 200 µM | 102 µM | 
33 | O=C(Nc1cccc(NC(=O)C(=O)C2CCC3=C(Sc4ccccc4N3)C2=O)n1)C(=O)C1CCC2=C(Sc3ccccc3N2)C1=O (stereo not drawn) | > 75.9 µM | 63.1 µM | 
34 | O=Cc1cc([N+](=O)[O-])no1 |  |  | inactive
35 | COP(=O)(OC)C(=NCc1ccccc1)NNc1ccc([N+](=O)[O-])cc1 | > 200 µM | 191 µM | 
36 | COc1cc(N=Nc2ccccc2)ccc1NCS(=O)(=O)O | > 200 µM | 174 µM | 
37 | COc1ccc(SCc2ccc(C(=O)O)cc2[N+](=O)[O-])cc1 | > 295 µM | 162 µM | 
38 | O=C1/C=C(/c2ccc(O)cc2)[C@H](O)Cc2ccc(OC3OC(CO)C(O)C(O)C3O)cc2O1 (stereo partly drawn) (tested in a mixture with another compound) | > 251 µM | > 251 µM | 
39 | Cc1ccc(/C=C2\CN(C)CC3C2=NC(=S)NC3c2ccc(C)cc2)cc1 (stereo not drawn) | > 200 µM | 24.5 µM | 
40 | N#C/C(=C/c1ccc(Cl)cc1)c1ccc(Cl)cc1 | > 200 µM | 195 µM | 
41 | Nc1ccc(C2CCC(C(=O)O)N2)cc1 (stereo not drawn) | > 200 µM | > 200 µM | 
42 | COC(=O)C(C(=O)C(=O)Nc1c(Cl)cc([N+](=O)[O-])cc1Cl)c1nc2cc(C)c(C)cc2[nH]c1=O (stereo not drawn) | > 97.7 µM | > 97.7 µM | 
43 | CCN(CC)C(=O)O/N=C(/C)c1ccccc1 | > 200 µM | > 200 µM | 
44 | Cc1nnc(SCC2=C(C(=O)O)N3C(=O)C(NC(=O)Cn4cnnn4)C3SC2)s1 (stereo not drawn) | > 200 µM | > 200 µM | 

Row | SMILES | EC50 | IC50 | outcome
45 | C=CC[C@@]1(OC(C)=O)C(=O)C(=O)OC1C1COC(C)(C)O1 (stereo partly drawn) | > 200 µM | 11.2 µM | 
46 | COc1ccccc1N/N=c1\c2nc3ccccc3nc1n(-c1ccccc1C)c(=S)n2-c1ccc(Cl)cc1 | > 200 µM | 178 µM | 
47 | CC(=O)C(C(=O)CCSCCO)C(SCCO)c1ccc(Cl)c(Cl)c1 (stereo not drawn) | > 200 µM | 10.5 µM | 
48 | CC1CCC/C(=N/NC(N)=O)C12CC2 (stereo not drawn) | > 200 µM | > 200 µM | 
49 | CC1CC(=O)C(CC(=O)O)C1C(C(=O)C(=O)Nc1c(C#N)cccc1[N+](=O)[O-])[N+](=O)[O-] (stereo not drawn) |  |  | inactive
50 | CC(=O)c1nc2ccccc2n1CC(=O)c1ccc(Cl)cc1 | > 200 µM | 1.35 µM | 
51 | C[n+]1c2ccccc2c(CNCC(=O)O)c2ccccc21 |  |  | inactive
52 | Cc1cccc(-c2cccc(COCc3cccc(-c4cccc(CO)n4)n3)n2)n1 | > 100 µM | 43.7 µM | 
53 | O=C(N/C(=C\c1ccc(/C=C(\NC(=O)c2ccccc2)c2nc3cc([N+](=O)[O-])ccc3[nH]2)cc1)c1nc2cc([N+](=O)[O-])ccc2[nH]1)c1ccccc1 |  |  | inactive
54 | CNS(=O)(=O)c1c(N)ncn1C | > 1100 µM | > 1100 µM | 
55 | CCC(Oc1c2ccoc2c(OC)c2oc(=O)cc(O)c12)C(=O)O (stereo not drawn) | > 269 µM | > 269 µM | 
56 | CC(=O)Oc1cc(O)c2c(=O)c(OC(C)=O)c(-c3ccc(OC(C)=O)c(OC(C)=O)c3)oc2c1 | > 200 µM | 33.9 µM | 
57 | O=S1c2ccccc2N=C(c2cccs2)CC1c1ccccc1O (stereo not drawn) | > 10.7 µM | > 10.7 µM | 
58 | CC(=O)C(/C=N\C(N)=S)=C(\C)O | > 200 µM | > 200 µM | 
59 | CCOC(=O)C1(C(=O)OCC)Cc2c([nH]c3ccccc23)CN1C(=O)c1ccccc1 | > 22.4 µM | > 22.4 µM | 
60 | Cc1ccc(NC(=O)CC2C(=O)Nc3ccccc3S2=O)c(C)c1 (stereo not drawn) | > 15.1 µM | > 15.1 µM | 
61 | CC1=NNC(N)=N/C1=C\C(Sc1ccc(Cl)cc1)c1ccc([N+](=O)[O-])cc1 (stereo not drawn) | > 117 µM | 30.9 µM | 
62 | CC1CN=C(N(Cc2ccccc2)C(=O)Nc2ccc(Cl)c(Cl)c2)S1 (stereo not drawn) | > 200 µM | 67.6 µM | 
63 | CN(C)c1ccc(SSc2ccc(N(C)C)cc2)cc1 | > 200 µM | 14.1 µM | 
64 | COc1ccc(/C=C2\N=C(c3ccccc3)N(N=C3NC(=O)CC(=O)N3)C2=O)cc1 | > 200 µM | > 200 µM | 
65 | CCc1cccc(C(C)(C)C)c1NC(=S)/N=C/C(C(=O)c1ccccc1)=C(\O)c1ccccc1 | > 200 µM | 51.3 µM | 
66 | Nc1nc(N)c(-c2cccc(C(F)(F)F)c2)c(Cc2cccc(C(F)(F)F)c2)n1 | > 20 µM | 0.759 µM | 

Row | SMILES | EC50 | IC50 | outcome
67 | CCOC(=O)C(=Cc1cccnc1C)C(=O)OCC | > 692 µM | 8.32 µM | 
68 | Cc1nc(Nc2ccccc2)sc1C(=O)NNC(N)=O | > 151 µM | 63.1 µM | 
69 | CCOC(=O)c1c(NC(=O)c2cccs2)sc2c1CCC2 | 195 µM | > 200 µM | 
70 | O=C(c1cc(Cl)ccc1Cl)N1CCN(c2cccc(Cl)c2)CC1 | > 200 µM | 15.5 µM | 
71 | O=C1NC(=O)C(=Cc2ccc(Cl)cc2)C(=O)N1 | > 75.9 µM | > 75.9 µM | inactive
72 | COc1cc(Oc2nc3c(N)cc(C(F)(F)F)cc3nc2-c2ccccc2)cc(OC)c1OC | > 20 µM | 14.1 µM | 
73 | CCCCCCCCCCCCNC(=S)OC |  |  | inactive
74 | CNC(=O)CN(CC(N)=O)C(=O)NC | > 891 µM | > 891 µM | 
75 | O=C1CC[C@@H](S(=O)(=O)c2ccccc2)[C@@H](/C=C/c2ccccc2)O1 |  |  | inactive
76 | O=C1c2cc3c(cc2CC1Br)CCC3 (stereo not drawn) | > 20 µM | 0.38 µM | 
77 | Cc1cn(C2C=CC(COP(=O)(OCC(=O)C(C)(C)C)OCC(=O)C(C)(C)C)O2)c(=O)[nH]c1=O (stereo not drawn) | 1.29 µM | > 200 µM | 
78 | COc1ccc(/C=C(\C#N)c2ccccn2)cc1OC | > 200 µM | 50.1 µM | 
79 | COC(=O)[C@]12CSCN1C(=O)C(C(C)=O)=NN2C(=O)[C@](OC)(c1ccccc1)C(F)(F)F | > 200 µM | > 200 µM | 
80 | NC(=O)c1n[nH]n(-c2ccccc2)c1=O | > 200 µM | > 200 µM | 
81 | C[n+]1c2ccccc2n2c3ccccc3c(NCc3ccco3)c(C#N)c21 | > 20 µM | 1.48 µM | 
82 | Nn1c(CCCCCCCCc2nnc(COc3ccc4ccccc4c3O)n2N)nnc1COc1ccc2ccccc2c1O | > 200 µM | 2.45 µM | 
83 | COC(=O)Cc1cc(=O)oc2c1C(=O)CCC2 |  |  | inactive
84 | S=c1n(-c2ccc(Cl)cc2)c2nc3ccccc3nc(/c2=N\Nc2ccccc2)n1-c1ccccn1 | > 37.2 µM | 29.5 µM | 
85 | S=C1CSc2c(cnc3ccccc23)N1 | > 200 µM | 105 µM | 
86 | C[N+]1(C)CC=C(N2CCOCC2)CC1 | > 200 µM | > 200 µM | 
87 | O=C(O)CSc1n[nH]c(-c2ccco2)n1 | > 224 µM | > 224 µM | 

From PubChem BioAssay AID179 (DTP/NCI, 2004)
